Measurements from ChEMBL document CHEMBL4819064, “Discovery of new pyrimidopyrrolizine/indolizine-based derivatives as P-glycoprotein inhibitors: Design, synthesis, cytotoxicity, and MDR reversal activities” (Eur J Med Chem, 2021).

What was measured:
A2780 = assay: Cytotoxicity against human A2780 cells assessed as reduction in cell viability incubated for 72 hrs by MTT assay; conditions: A2780, 72 h
HT-29 = assay: Cytotoxicity against human HT29 cells assessed as reduction in cell viability incubated for 72 hrs by MTT assay; conditions: HT-29, 72 h
[1] = Selectivity index, ratio of IC50 for human MRC5 cells to IC50 for human A2780 cells; assay type: toxicity; conditions: MRC5 cells versus A2780 cells, read-out: Ratio IC50
[2] = Selectivity index, ratio of IC50 for human MRC5 cells to IC50 for human HT29 cells; assay type: toxicity; conditions: MRC5 cells versus HT29 cells, read-out: Ratio IC50
[3] = Selectivity index, ratio of IC50 for human MRC5 cells to IC50 for human MCF7 cells; assay type: toxicity; conditions: MRC5 cells versus MCF7 cells, read-out: Ratio IC50
MCF7 = assay: Cytotoxicity against human MCF7 cells assessed as reduction in cell viability incubated for 72 hrs by MTT assay; assay type: functional, cell-based; conditions: MCF7, 72 h
MRC5 = assay: Cytotoxicity against human MRC5 cells assessed as reduction in cell viability incubated for 72 hrs by MTT assay; conditions: MRC5, 72 h
[4] = Inhibition of P-gp in mouse EMT6/AR1.0 cells assessed reduction in tritiated daunomycin efflux incubated for 2 hrs by radioactivity based assay; assay type: cell-based; conditions: EMT6/AR1, 2 h
NCI/ADR-RES [5] = assay: Synergistic cytotoxicity against human MCF7/ADR cells assessed as combination index at 0.5 uM after 72 hrs in presence of 0.25 uM doxorubicin by MTT assay; assay type: functional
NCI/ADR-RES [6] = assay: Synergistic cytotoxicity against human MCF7/ADR cells assessed as combination index at 0.25 uM after 72 hrs in presence of 0.5 uM doxorubicin by MTT assay; assay type: functional
NCI/ADR-RES [7] = assay: Synergistic cytotoxicity against human MCF7/ADR cells assessed as combination index at 0.5 uM after 72 hrs in presence of 1 uM doxorubicin by MTT assay; assay type: functional
NCI/ADR-RES [8] = assay: Synergistic cytotoxicity against human MCF7/ADR cells assessed as combination index at 1 uM after 72 hrs in presence of 0.5 uM doxorubicin by MTT assay; assay type: functional
[9] = Reversal of multidrug resistant activity in human MCF7/ADR cells assessed as reversal fold after 72 hrs by MTT assay; assay type: functional, NCI/ADR-RES
NCI/ADR-RES [10] = assay: Synergistic cytotoxicity against human MCF7/ADR cells assessed as combination index at 1 uM after 72 hrs in presence of 1 uM doxorubicin by MTT assay; assay type: functional
NCI/ADR-RES [11] = assay: Synergistic cytotoxicity against human MCF7/ADR cells assessed as combination index at 0.25 uM after 72 hrs in presence of 0.25 uM doxorubicin by MTT assay; assay type: functional
NCI/ADR-RES [12] = assay: Synergistic cytotoxicity against human MCF7/ADR cells assessed as combination index at 0.5 uM after 72 hrs in presence of 0.5 uM doxorubicin by MTT assay; assay type: functional
NCI/ADR-RES [13] = assay: Synergistic cytotoxicity against human MCF7/ADR cells assessed as combination index at 1 uM after 72 hrs in presence of 0.25 uM doxorubicin by MTT assay; assay type: functional
NCI/ADR-RES [14] = assay: Cytotoxicity against human MCF7/ADR cells assessed as reduction in cell viability incubated for 72 hrs by MTT assay
NCI/ADR-RES [15] = assay: Synergistic cytotoxicity against human MCF7/ADR cells assessed as combination index at 0.25 uM after 72 hrs in presence of 1 uM doxorubicin by MTT assay; assay type: functional
NCI/ADR-RES [16] = assay: Cytotoxicity against human MCF7/ADR cells assessed as reduction in cell viability incubated for 72 hrs in presence of doxorubicin by MTT assay; assay type: functional, cell-based
P-gp (ABCB1) [17] = biological target: T1, P-gp (ABCB1) (Homo sapiens, UniProt P08183); assay: Inhibition of P-gp activity in human MCF7/ADR cells at 500 nM after 72 hrs by RT-PCR analysis relative to control; assay type: cell-based, NCI/ADR-RES; conditions: MCF7/ADR cells
T1 sequence (P08183 whole entry): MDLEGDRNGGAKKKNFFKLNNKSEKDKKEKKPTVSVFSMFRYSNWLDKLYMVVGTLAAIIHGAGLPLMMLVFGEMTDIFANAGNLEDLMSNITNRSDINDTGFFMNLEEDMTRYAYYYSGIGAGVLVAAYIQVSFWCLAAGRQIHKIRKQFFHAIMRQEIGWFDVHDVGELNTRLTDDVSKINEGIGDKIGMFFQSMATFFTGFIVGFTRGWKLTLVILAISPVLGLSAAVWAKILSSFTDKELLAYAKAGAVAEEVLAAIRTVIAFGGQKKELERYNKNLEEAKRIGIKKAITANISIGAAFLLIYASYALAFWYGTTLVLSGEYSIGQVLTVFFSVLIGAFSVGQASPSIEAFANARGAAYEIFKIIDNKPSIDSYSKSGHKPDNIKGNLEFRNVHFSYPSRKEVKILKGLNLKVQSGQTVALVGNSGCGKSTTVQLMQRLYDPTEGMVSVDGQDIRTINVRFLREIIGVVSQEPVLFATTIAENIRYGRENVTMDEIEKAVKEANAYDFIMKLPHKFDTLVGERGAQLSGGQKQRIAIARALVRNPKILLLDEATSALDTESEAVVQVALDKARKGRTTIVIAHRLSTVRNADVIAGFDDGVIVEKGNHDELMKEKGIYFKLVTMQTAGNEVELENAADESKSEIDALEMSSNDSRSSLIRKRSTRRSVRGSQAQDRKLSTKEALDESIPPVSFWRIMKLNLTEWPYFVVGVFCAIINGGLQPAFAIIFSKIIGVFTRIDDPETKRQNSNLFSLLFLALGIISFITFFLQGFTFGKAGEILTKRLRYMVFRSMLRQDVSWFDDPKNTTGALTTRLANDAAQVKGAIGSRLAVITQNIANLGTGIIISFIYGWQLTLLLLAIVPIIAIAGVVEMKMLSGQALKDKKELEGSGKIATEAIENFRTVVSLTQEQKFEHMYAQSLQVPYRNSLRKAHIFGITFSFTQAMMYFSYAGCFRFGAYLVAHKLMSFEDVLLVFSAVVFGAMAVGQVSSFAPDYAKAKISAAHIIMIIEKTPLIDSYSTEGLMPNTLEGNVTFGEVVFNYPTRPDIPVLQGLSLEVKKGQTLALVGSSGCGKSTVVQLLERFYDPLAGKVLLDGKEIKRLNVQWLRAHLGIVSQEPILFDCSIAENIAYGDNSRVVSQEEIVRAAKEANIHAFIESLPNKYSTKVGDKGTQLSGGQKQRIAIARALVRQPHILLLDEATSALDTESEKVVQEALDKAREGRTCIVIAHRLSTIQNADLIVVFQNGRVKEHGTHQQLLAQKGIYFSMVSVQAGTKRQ

P-gp (ABCB1) [18] = biological target: T1, P-gp (ABCB1); assay: Inhibition of P-gp activity in human MCF7/ADR cells at 125 nM after 72 hrs by RT-PCR analysis relative to control; assay type: cell-based, NCI/ADR-RES
P-gp (ABCB1) [19] = biological target: T1, P-gp (ABCB1); assay: Inhibition of P-gp activity in human MCF7/ADR cells at 250 nM after 72 hrs by RT-PCR analysis relative to control; assay type: cell-based, NCI/ADR-RES; conditions: MCF7/ADR cells
P-gp (ABCB1) [20] = biological target: T1, P-gp (ABCB1); assay: Inhibition of P-gp activity in human MCF7/ADR cells at 1000 nM after 72 hrs by RT-PCR analysis relative to control; assay type: cell-based, NCI/ADR-RES; conditions: MCF7/ADR cells
[21] = biological target: ATP-dependent translocase ABCB1 (Homo sapiens, UniProt P08183); assay: Inhibition of P-gp activity in human MCF7/ADR cells after 72 hrs by RT-PCR analysis; assay type: cell-based; conditions: nci/adr-res, at 125 to 1000 nM, dose 125-1000 nM
Sequence of ATP-dependent translocase ABCB1 (P08183 whole entry): as above

SMILES | IC50 (A2780) | IC50 (HT-29) | selectivity ratio [1] | selectivity ratio [2] | selectivity ratio [3] | IC50 (MCF7) | IC50 (MRC5) | also measured
N#Cc1c2c(n3c1CCC3)C(=O)N(c1ccc(F)cc1)CC(=O)N2 | 970 nM | 9710 nM | 1.51 | 0.15 | 7.68 | 190 nM | 1460 nM | –
N#Cc1c2n(c3c(SCc4ccc(Cl)cc4)ncnc13)CCCCC2 | – | – | – | – | – | – | – | IC50 [4]: > 50000 nM
Cc1nc2c(C#N)c3n(c2c(=O)n1-c1ccccc1)CCCC3 | 50 nM | 880 nM | 152 | 8.61 | 4.23 | 1790 nM | 7580 nM | –
O=C(Nc1ccc(F)cc1)c1c2nc[nH]c(=O)c2c2n1CCC2 | 580 nM | 1020 nM | 0.29 | 0.17 | 0.23 | 740 nM | 170 nM | –
COc1ccc(-n2c(=O)[nH]c3c(C#N)c4n(c3c2=O)CCC4)cc1 | 15600 nM | 420 nM | 0.88 | 33 | 0.71 | 19600 nM | 13800 nM | –
COc1ccc(-n2cnc3c(C#N)c4n(c3c2=O)CCC4)cc1 | 1360 nM | 11000 nM | 15.1 | 1.88 | 7.88 | 2610 nM | 20600 nM | –
Cc1nc2c(C#N)c3n(c2c(=O)n1-c1ccc(F)cc1)CCC3 | 150 nM | 780 nM | 18.5 | 3.56 | 16.4 | 170 nM | 2780 nM | CI (NCI/ADR-RES [5]): >100; CI (NCI/ADR-RES [6]): >100; CI (NCI/ADR-RES [7]): 0.2; CI (NCI/ADR-RES [8]): 9.602; fold change (FC) [9]: 2.98; CI (NCI/ADR-RES [10]): 0.1; CI (NCI/ADR-RES [11]): >100; CI (NCI/ADR-RES [12]): >100; CI (NCI/ADR-RES [13]): >100; IC50 (NCI/ADR-RES [14]): 46900 nM; CI (NCI/ADR-RES [15]): 0.89; IC50 (NCI/ADR-RES [16]): 6120 nM
N#Cc1c2n(c3c(=O)n(-c4ccc(Br)cc4)cnc13)CCCC2 | 20 nM | 14200 nM | 792 | 1.12 | 58.6 | 270 nM | 15800 nM | inhibition at 72 h, 0.5 µM (P-gp (ABCB1) [17]): 87%; CI (NCI/ADR-RES [5]): >100; inhibition at 72 h, 0.125 µM (P-gp (ABCB1) [18]): 5%; CI (NCI/ADR-RES [6]): >100; CI (NCI/ADR-RES [7]): 0.91; inhibition at 72 h, 0.25 µM (P-gp (ABCB1) [19]): 63%; CI (NCI/ADR-RES [8]): 1.53; fold change (FC) [9]: 5.93; CI (NCI/ADR-RES [10]): 0.1; CI (NCI/ADR-RES [11]): >100; CI (NCI/ADR-RES [12]): 1.141; CI (NCI/ADR-RES [13]): >100; inhibition at 72 h, 1 µM (P-gp (ABCB1) [20]): 90%; IC50 (NCI/ADR-RES [14]): 20200 nM; CI (NCI/ADR-RES [15]): 0.2; inhibition (INH) [21]: Dose-Dependent Effect; IC50 (NCI/ADR-RES [16]): 3070 nM
